Reference: patent publication US20210317090A1, “AMINO ACID DEPLETION AGENTS AS ANTIPROLIFERATIVE AGENTS” (University of Central Florida Research Foundation, Inc., priority 2018, published 2021)

Target: T1, LAT-1 (Homo sapiens, UniProt Q01650)
T1 construct: endogenous in cells; host or cells: L3.6pl human pancreatic cancer cells
Assay: 3H-Leucine uptake assay
Format: cell-based
Conditions: L3.6pl cells, increasing concentration, 15 min uptake (FIG. 10D, 10E)
Protocol: ^3H-Leucine uptake experiments were performed according to the protocol developed by Hälfliger et al. (2018) (referenced below with the following changes. Briefly, cells were seeded at 60% confluency in a 24-well plate and incubated for 4 h at 37° C. After 4 hours, different concentrations of compound 10 were added and the cells were then incubated overnight. L-^3H-leucine uptake inhibition was measured for 15 minutes using a 12 μM stock of L-[^3H]leucine (79 Ci/mmol). The final concentration of ^3H-leucine in each well was 1.2 uM. This concentration produced a CPM reading of ˜4000 cpm for the control. Uptake was terminated by removing the buffer solution followed by washing the cells with cold Na^+-free Hank's Balanced Salt Solution. Cells were then lysed to give ˜500 μL of cell lysate. A portion of the cell lysate (200 μL) was mixed with Scintiverse™ BD Cocktail for determining radiocounts. The radioactivity was measured with a scintillation counter (Beckman Coulter LS 6500 Multi-Purpose Scintillation Counter). Another portion of the cell lysate (300 μL) was used for protein determination using the BCA method. The final data was expressed as cpm/microgram of protein to account for the different number of cells remaining after the experiment. This was necessary because compound 10 was toxic and less cells were present after the overnight incubation (24 h). […]

T1 sequence (Q01650 whole entry): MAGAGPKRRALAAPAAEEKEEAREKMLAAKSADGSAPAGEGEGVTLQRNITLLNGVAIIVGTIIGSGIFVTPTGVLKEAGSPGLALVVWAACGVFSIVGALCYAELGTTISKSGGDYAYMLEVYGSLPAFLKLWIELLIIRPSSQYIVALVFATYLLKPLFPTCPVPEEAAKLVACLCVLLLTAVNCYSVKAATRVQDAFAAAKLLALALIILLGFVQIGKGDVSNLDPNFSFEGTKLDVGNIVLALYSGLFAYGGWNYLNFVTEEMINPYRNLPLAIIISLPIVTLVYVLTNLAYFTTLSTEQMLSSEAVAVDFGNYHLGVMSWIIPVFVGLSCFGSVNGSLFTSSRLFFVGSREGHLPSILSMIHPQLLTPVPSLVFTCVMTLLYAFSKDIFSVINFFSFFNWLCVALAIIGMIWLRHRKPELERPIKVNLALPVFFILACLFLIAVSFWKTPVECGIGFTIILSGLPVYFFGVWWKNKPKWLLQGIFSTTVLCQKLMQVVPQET
T1 sequence (P08195 102-630 partner): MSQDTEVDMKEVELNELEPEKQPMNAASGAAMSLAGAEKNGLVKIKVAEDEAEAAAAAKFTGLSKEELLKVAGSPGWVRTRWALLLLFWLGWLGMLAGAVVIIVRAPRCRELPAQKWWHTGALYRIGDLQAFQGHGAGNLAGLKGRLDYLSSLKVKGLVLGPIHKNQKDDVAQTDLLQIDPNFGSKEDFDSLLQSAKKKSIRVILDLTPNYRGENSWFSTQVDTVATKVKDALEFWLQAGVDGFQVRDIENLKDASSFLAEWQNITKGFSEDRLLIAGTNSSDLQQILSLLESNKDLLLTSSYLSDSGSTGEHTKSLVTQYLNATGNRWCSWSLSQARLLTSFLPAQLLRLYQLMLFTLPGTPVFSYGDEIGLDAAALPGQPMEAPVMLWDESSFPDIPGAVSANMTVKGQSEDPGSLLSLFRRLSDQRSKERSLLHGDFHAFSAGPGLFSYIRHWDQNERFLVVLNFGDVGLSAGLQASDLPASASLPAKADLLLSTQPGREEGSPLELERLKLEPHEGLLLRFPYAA

CC(C)CCN1CCN(C(CNCc2ccccc2)CC2CCCCC2)CC1CC(C)C.Cl.Cl.Cl (stereo not shown) [Compound 10, Benzyl-{3-cyclohexyl-2-[3-isobutyl-4-(3-methyl-butyl)-piperazin-1-yl]-propyl}-amine trihydrochloride salt]
3H-Leucine uptake: able to inhibit the uptake
